Consider three molecules from patent publication US20240099989A1, “AGENT FOR PREVENTING OR IMPROVING PERIPHERAL NEUROPATHY” (KINKI UNIVERSITY, priority 2021, published 2024).

The structures appear in SMILES notation.

This assay concerns Diabetic Peripheral Neuropathy in a Mouse Induced by Streptozotocin. In words: Cold plate test (4° C.), diabetic peripheral neuropathy induced by streptozotocin. The class given is in vivo, C57BL/6J mice. The conditions noted are these: time course. Here is the method:
Six to seven-week-old male C57BL/6J mice were used for the tests as with Example 7. All the mice were acclimated for seven days after arrival. Then, the mice were grouped into the following four groups: a control group, a group receiving streptozotocin, a group receiving 1 mg/kg xylitol, and a group receiving streptozotocin+1 mg/kg xylitol. Each group consisted of nine mice.
The mice in the group receiving 1 mg/kg xylitol were orally administered with xylitol at a dose of 1 mg/kg daily from Day 0. The mice in the group receiving streptozotocin+1 mg/kg xylitol were orally administered with xylitol at a dose of 1 mg/kg daily from Day 21 of administration.
A cold plate test was performed to examine the effect due to xylitol on paresthesia that is caused by a low temperature stimulus. The mice in the four groups described in (1) of the present example (Example 8) were placed on a cold plate set at 4° C., and withdrawal response time (latent time) was measured. It is presumed that a shorter withdrawal response time (latent time) reflects a greater degree of shunning the low temperature stimulus by the cold plate. […]
On Day 8 of acclimation, the mice in the group receiving streptozotocin and the group receiving streptozotocin+5 mg/kg D-threitol were administered with streptozotocin at a dose of 200 mg/kg. A massive dose of streptozotocin destroys pancreatic cells in the mice. As a result, insulin is no longer secreted, and thus, diabetes can be developed in the mice. This day was designated as the first day of the administration (Day 0). Note that streptozotocin was administered only on the first day of administration.
The mice in the group receiving 5 mg/kg D-threitol and the group receiving streptozotocin+5 mg/kg D-threitol were orally administered with D-threitol at a dose of 5 mg/kg daily from Day 0. […]
The mice in the group receiving 5 mg/kg D-threitol were orally administered with D-threitol at a dose of 5 mg/kg daily from Day 0. The mice in the group receiving streptozotocin+5 mg/kg D-threitol were orally administered with D-threitol at a dose of 5 mg/kg daily from Day 21 of administration.
A cold plate test was performed to examine the effect of D-threitol on paresthesia that is caused by a low temperature stimulus. The mice in the four groups described in (1) of the present example (Example 10) were placed on a cold plate set at 4° C., and withdrawal response time (latent time) was measured. […]
A cold plate test was performed to examine the effect of L-talitol on paresthesia that is caused by a low temperature stimulus. The mice in the four groups described in (1) of the present example (Example 11) were placed on a cold plate set at 4° C., and withdrawal response time (latent time) was measured. […]

Where [1] appears, read: streptozotocin 200 mg/kg + 5 mg/kg orally daily from Day 21 (therapy).

As for `OC[C@@H](O)[C@H](O)CO` [D-threitol], the “withdrawal response time (latent time)” value under setting [1] was “extended from Day 21 onwards”.
The same measure, in the same setting: under `OC[C@H](O)[C@H](O)[C@H](O)[C@@H](O)CO` [L-talitol] stands “extended from Day 21 onwards”.
As for `OC[C@@H](O)[C@H](O)[C@@H](O)CO` [xylitol], the “withdrawal response time (latent time)” value (streptozotocin 200 mg/kg + 1 mg/kg orally daily from Day 21 (therapy)) is “extended from Day 21 onwards”.
